Data on two molecules can be found in the NIST ThermoML archive (doi:10.1016/j.fluid.2006.05.029).

A word on the refractive index: it is the speed of light in vacuum divided by its phase velocity in the sample. Broadly, the mass density is mass per unit of volume.

± gives the expanded uncertainty stated by the source.

The nature of data set [1]: refractive index (Na D-line) (dimensionless). As to conditions: 298.15 K; 101.33 kPa; Liquid; Standard Abbe refractometry.
For data set [2] the following is noted: 298.15 K, 101.33 kPa, Liquid.

In the case of `COC(=O)OC` [dimethyl carbonate], the refractive index in data set [1] came to 1.3672 ± 0.0008. For the same molecule, the mass density in data set [2] came out at 1063.33 ± 1.3 kg/m3.
For the molecule `CO` [methanol], in data set [1], the refractive index was determined as 1.3262 ± 0.0007. Also, in data set [2] (Pycnometric method), the mass density was 786.49 ± 0.71 kg/m3.
